Assay results as given in ChEMBL document CHEMBL1151757, “Synthesis, radiosynthesis, and biological evaluation of fluorine-18-labeled 2beta-carbo(fluoroalkoxy)-3beta-(3'-((Z)-2-haloethenyl)phenyl)nortropanes: candidate radioligands for in vivo imaging of the serotonin transporter with positron emission tomography” (J Med Chem, 2008).

How the values were obtained:
Medulla [1] = assay: Drug uptake in anesthetized cynomolgus monkey brain medulla after 12.5 mins postinjection; format: ADME, organism-based, Macaca fascicularis; settings: in vivo
[2] = Ratio of drug uptake in midbrain to cerebellum in anesthetized cynomolgus monkey after 185 mins postinjection; format: ADME, organism-based, Macaca fascicularis; settings: in vivo
Medulla [3] = assay: Drug uptake in anesthetized cynomolgus monkey brain medulla after 225 mins postinjection; format: ADME, organism-based, Macaca fascicularis; settings: in vivo, 3.75 h
Thalamus [4] = assay: Drug uptake in anesthetized cynomolgus monkey brain thalamus after 55 mins postinjection; format: ADME, organism-based, Macaca fascicularis; parameters: unit not given here; settings: in vivo
[5] = Ratio of drug uptake in pons to cerebellum in anesthetized cynomolgus monkey after 6.5 mins postinjection; format: ADME, organism-based, Macaca fascicularis; settings: in vivo
Medulla [6] = assay: Drug uptake in anesthetized cynomolgus monkey brain medulla after 235 mins postinjection; format: ADME, organism-based, Macaca fascicularis; settings: in vivo
Putamen [7] = assay: Drug uptake in anesthetized cynomolgus monkey brain putamen after 85 mins postinjection; format: ADME, organism-based, Macaca fascicularis; parameters: unit not given here; settings: in vivo
Midbrain [8] = assay: Drug uptake in anesthetized cynomolgus monkey brain midbrain after 235 mins postinjection; format: ADME, organism-based, Macaca fascicularis; settings: in vivo
Pons [9] = assay: Drug uptake in anesthetized cynomolgus monkey brain pons after 205 mins postinjection; format: ADME, organism-based, Macaca fascicularis; settings: in vivo
Medulla [10] = assay: Drug uptake in anesthetized cynomolgus monkey brain medulla after 85 mins postinjection; format: ADME, organism-based, Macaca fascicularis; settings: in vivo
Medulla [11] = assay: Drug uptake in anesthetized cynomolgus monkey brain medulla after 105 mins postinjection; format: ADME, organism-based, Macaca fascicularis; settings: in vivo, 1.75 h
[12] = Drug uptake in anesthetized cynomolgus monkey brain cerebellum after 195 mins postinjection; format: ADME, organism-based, Macaca fascicularis; settings: in vivo, 3.25 h
Midbrain [13] = assay: Drug uptake in anesthetized cynomolgus monkey brain midbrain after 3.5 mins postinjection; format: ADME, organism-based, Macaca fascicularis; parameters: unit not given here; settings: in vivo
[14] = Ratio of drug uptake in occipital lobe to cerebellum in anesthetized cynomolgus monkey after 4.5 mins postinjection; format: ADME, organism-based, Macaca fascicularis; settings: in vivo, 0.075 h
Pons [15] = assay: Drug uptake in anesthetized cynomolgus monkey brain pons after 195 mins postinjection; format: ADME, organism-based, Macaca fascicularis; settings: in vivo, 3.25 h
Caudate [16] = assay: Drug uptake in anesthetized cynomolgus monkey brain caudate after 55 mins postinjection; format: ADME, organism-based, Macaca fascicularis, Caudate nucleus; settings: in vivo
[17] = Drug uptake in anesthetized cynomolgus monkey brain cerebellum after 225 mins postinjection; format: ADME, organism-based, Macaca fascicularis; settings: in vivo, 3.75 h
[18] = Drug uptake in anesthetized cynomolgus monkey brain occipital lobe after 0.5 mins postinjection; format: ADME, organism-based, Macaca fascicularis; settings: in vivo
Putamen [19] = assay: Drug uptake in anesthetized cynomolgus monkey brain putamen after 0.5 mins postinjection; format: ADME, organism-based, Macaca fascicularis; settings: in vivo
[20] = Ratio of drug uptake in frontal lobe to cerebellum in anesthetized cynomolgus monkey after 3.5 mins postinjection; format: ADME, organism-based, Macaca fascicularis; settings: in vivo
[21] = Ratio of drug uptake in thalamus to cerebellum in anesthetized cynomolgus monkey after 155 mins postinjection; format: ADME, organism-based, Macaca fascicularis; settings: in vivo
Midbrain [22] = assay: Drug uptake in anesthetized cynomolgus monkey brain midbrain after 105 mins postinjection; format: ADME, organism-based, Macaca fascicularis; parameters: unit not given here; settings: in vivo, 1.75 h
Midbrain [23] = assay: Drug uptake in anesthetized cynomolgus monkey brain midbrain after 165 mins postinjection; format: ADME, organism-based, Macaca fascicularis; settings: in vivo, 2.75 h
Medulla [24] = assay: Drug uptake in anesthetized cynomolgus monkey brain medulla after 65 mins postinjection; format: ADME, organism-based, Macaca fascicularis; settings: in vivo
Thalamus [25] = assay: Drug uptake in anesthetized cynomolgus monkey brain thalamus after 165 mins postinjection; format: ADME, organism-based, Macaca fascicularis; parameters: unit not given here; settings: in vivo, 2.75 h
Midbrain [26] = assay: Drug uptake in anesthetized cynomolgus monkey brain midbrain after 55 mins postinjection; format: ADME, organism-based, Macaca fascicularis; parameters: unit not given here; settings: in vivo
Thalamus [27] = assay: Drug uptake in anesthetized cynomolgus monkey brain thalamus after 15.5 mins postinjection; format: ADME, organism-based, Macaca fascicularis; parameters: unit not given here; settings: in vivo
Medulla [28] = assay: Drug uptake in anesthetized cynomolgus monkey brain medulla after 9.5 mins postinjection; format: ADME, organism-based, Macaca fascicularis; settings: in vivo
Thalamus [29] = assay: Drug uptake in anesthetized cynomolgus monkey brain thalamus after 215 mins postinjection; format: ADME, organism-based, Macaca fascicularis; parameters: unit not given here; settings: in vivo
[30] = Ratio of drug uptake in putamen to cerebellum in anesthetized cynomolgus monkey after 45 mins postinjection; format: ADME, organism-based, Macaca fascicularis; settings: in vivo, 0.75 h
[31] = Drug uptake in anesthetized cynomolgus monkey brain occipital lobe after 35 mins postinjection; format: ADME, organism-based, Macaca fascicularis; settings: in vivo
Midbrain [32] = assay: Drug uptake in anesthetized cynomolgus monkey brain midbrain after 2.5 mins postinjection; format: ADME, organism-based, Macaca fascicularis; parameters: unit not given here; settings: in vivo
[33] = Drug uptake in anesthetized cynomolgus monkey brain cerebellum after 6.5 mins postinjection; format: ADME, organism-based, Macaca fascicularis; settings: in vivo
Midbrain [34] = assay: Drug uptake in anesthetized cynomolgus monkey brain midbrain after 18.5 mins postinjection; format: ADME, organism-based, Macaca fascicularis; parameters: unit not given here; settings: in vivo
Thalamus [35] = assay: Drug uptake in anesthetized cynomolgus monkey brain thalamus after 135 mins postinjection; format: ADME, organism-based, Macaca fascicularis; parameters: unit not given here; settings: in vivo, 2.25 h
Medulla [36] = assay: Drug uptake in anesthetized cynomolgus monkey brain medulla after 75 mins postinjection; format: ADME, organism-based, Macaca fascicularis; settings: in vivo, 1.25 h
Caudate [37] = assay: Drug uptake in anesthetized cynomolgus monkey brain caudate after 1.5 mins postinjection; format: ADME, organism-based, Macaca fascicularis, Caudate nucleus; settings: in vivo, 0.025 h
[38] = Ratio of drug uptake in putamen to cerebellum in anesthetized cynomolgus monkey after 35 mins postinjection; format: ADME, organism-based, Macaca fascicularis; settings: in vivo
[39] = Ratio of drug uptake in medulla to cerebellum in anesthetized cynomolgus monkey after 1.5 mins postinjection; format: ADME, organism-based, Macaca fascicularis; settings: in vivo, 0.025 h
Midbrain [40] = assay: Drug uptake in anesthetized cynomolgus monkey brain midbrain after 115 mins postinjection; format: ADME, organism-based, Macaca fascicularis; parameters: unit not given here; settings: in vivo
Caudate [41] = assay: Drug uptake in anesthetized cynomolgus monkey brain caudate after 35 mins postinjection; format: ADME, organism-based, Macaca fascicularis, Caudate nucleus; settings: in vivo
Putamen [42] = assay: Drug uptake in anesthetized cynomolgus monkey brain putamen after 145 mins postinjection; format: ADME, organism-based, Macaca fascicularis; settings: in vivo
Pons [43] = assay: Drug uptake in anesthetized cynomolgus monkey brain pons after 15.5 mins postinjection; format: ADME, organism-based, Macaca fascicularis; settings: in vivo
Caudate [44] = assay: Drug uptake in anesthetized cynomolgus monkey brain caudate after 205 mins postinjection; format: ADME, organism-based, Macaca fascicularis, Caudate nucleus; settings: in vivo
[45] = Drug uptake in anesthetized cynomolgus monkey brain cerebellum after 175 mins postinjection; format: ADME, organism-based, Macaca fascicularis; settings: in vivo

Compound `O=C(OCC[18F])C1C2CCC(CC1c1ccc(/C=C\I)cc1)N2` (stereo not given) has a Drug uptake (Medulla [1]) of 2.59, a Ratio [2] of 3.5 and a Drug uptake (Medulla [3]) of 3.24. For the same compound, the Drug uptake (Thalamus [4]) was 3.78, the Ratio [5] was 0.8 and the Drug uptake (Medulla [6]) was 3.3. It also gave a Drug uptake (Putamen [7]) of 4.32, a Drug uptake (Midbrain [8]) of 4.44 and a Drug uptake (Pons [9]) of 3.34. It also gave a Drug uptake (Medulla [10]) of 3.91, a Drug uptake (Medulla [11]) of 3.82 and a Drug uptake [12] of 1.29. For the same compound, the Drug uptake (Midbrain [13]) was 0.84, the Ratio [14] was 0.8 and the Drug uptake (Pons [15]) was 3.42. The Drug uptake (Caudate [16]) was 2.73, the Drug uptake [17] was 1.08 and the Drug uptake [18] was 0. For the same compound, the Drug uptake (Putamen [19]) was 0, the Ratio [20] was 0.5 and the Ratio [21] was 2.7. The Drug uptake (Midbrain [22]) was 4.55, the Drug uptake (Midbrain [23]) was 4.6 and the Drug uptake (Medulla [24]) was 3.75. The Drug uptake (Thalamus [25]) was 3.88, the Drug uptake (Midbrain [26]) was 4.01 and the Drug uptake (Thalamus [27]) was 2.54. The Drug uptake (Medulla [28]) was 2.45, the Drug uptake (Thalamus [29]) was 3.47 and the Ratio [30] was 1.4. It also gave a Drug uptake [31] of 2.13, a Drug uptake (Midbrain [32]) of 0.4 and a Drug uptake [33] of 1.79. It also gave a Drug uptake (Midbrain [34]) of 2.78, a Drug uptake (Thalamus [35]) of 3.99 and a Drug uptake (Medulla [36]) of 3.82. For the same compound, the Drug uptake (Caudate [37]) was 0.07, the Ratio [38] was 1.4 and the Ratio [39] was 1.4. For the same compound, the Drug uptake (Midbrain [40]) was 4.5, the Drug uptake (Caudate [41]) was 2.33 and the Drug uptake (Putamen [42]) was 4.31. The Drug uptake (Pons [43]) was 2.14, the Drug uptake (Caudate [44]) was 2.77 and the Drug uptake [45] was 1.3.
